Measurements reported in paper PMC3482212, “Autoinducers Act as Biological Timers in Vibrio harveyi” (PLoS ONE, 2012).

Assays:
LuxN = LuxN (Vibrio campbellii, UniProt A7MRY4); test: biochemical; settings: read-out: % inhibition at 10 μM
[1] = molecular target: T1, LuxPQ (LuxQ in interplay with LuxP) (Vibrio harveyi, UniProt P54300); test: inhibition of LuxU phosphorylation by [gamma-32P]ATP, membrane vesicles, SDS-PAGE autoradiography; assay type: biochemical; settings: read-out: half-maximal inhibition
T1 construct: full-length wild-type LuxQ with C-terminal His6 in inverted membrane vesicles of E. coli TKR2000 (pNKQ); read-out phosphorylation of purified His6-LuxU; with Autoinducer 2 sensor kinase/phosphatase LuxQ
T1 sequence (P54302 whole entry): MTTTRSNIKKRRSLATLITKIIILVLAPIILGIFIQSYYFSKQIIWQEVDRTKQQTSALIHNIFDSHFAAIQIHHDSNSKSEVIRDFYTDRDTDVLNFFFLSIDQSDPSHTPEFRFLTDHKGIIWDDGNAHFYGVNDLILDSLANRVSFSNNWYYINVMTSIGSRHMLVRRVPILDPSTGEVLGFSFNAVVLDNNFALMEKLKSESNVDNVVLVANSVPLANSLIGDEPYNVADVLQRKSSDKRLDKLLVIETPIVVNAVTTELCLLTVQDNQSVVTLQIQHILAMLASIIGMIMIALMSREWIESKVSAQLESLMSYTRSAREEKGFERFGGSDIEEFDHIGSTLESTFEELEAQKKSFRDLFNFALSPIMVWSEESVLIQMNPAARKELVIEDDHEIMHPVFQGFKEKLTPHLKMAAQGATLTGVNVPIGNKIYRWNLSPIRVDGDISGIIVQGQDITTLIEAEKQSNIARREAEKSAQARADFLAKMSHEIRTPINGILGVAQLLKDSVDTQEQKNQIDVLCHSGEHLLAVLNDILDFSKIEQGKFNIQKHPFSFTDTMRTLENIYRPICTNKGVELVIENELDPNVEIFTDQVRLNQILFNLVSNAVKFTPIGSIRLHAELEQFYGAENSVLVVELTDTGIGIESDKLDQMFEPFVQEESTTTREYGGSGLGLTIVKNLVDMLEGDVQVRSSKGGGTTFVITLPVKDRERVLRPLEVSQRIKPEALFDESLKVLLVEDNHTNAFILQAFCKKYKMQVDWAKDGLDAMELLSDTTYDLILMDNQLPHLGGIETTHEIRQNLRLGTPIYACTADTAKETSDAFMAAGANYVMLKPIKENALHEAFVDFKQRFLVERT
T1 sequence (P54300 24-365): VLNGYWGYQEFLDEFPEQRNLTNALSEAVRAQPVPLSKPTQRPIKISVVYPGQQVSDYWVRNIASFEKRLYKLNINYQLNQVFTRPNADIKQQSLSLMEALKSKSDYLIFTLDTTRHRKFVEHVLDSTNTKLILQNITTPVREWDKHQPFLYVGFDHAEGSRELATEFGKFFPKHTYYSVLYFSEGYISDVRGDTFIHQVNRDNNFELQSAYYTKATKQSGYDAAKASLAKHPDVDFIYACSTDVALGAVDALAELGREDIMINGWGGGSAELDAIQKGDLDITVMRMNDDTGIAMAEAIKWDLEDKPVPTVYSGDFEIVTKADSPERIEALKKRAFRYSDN

Sequence of LuxN (A7MRY4 whole entry): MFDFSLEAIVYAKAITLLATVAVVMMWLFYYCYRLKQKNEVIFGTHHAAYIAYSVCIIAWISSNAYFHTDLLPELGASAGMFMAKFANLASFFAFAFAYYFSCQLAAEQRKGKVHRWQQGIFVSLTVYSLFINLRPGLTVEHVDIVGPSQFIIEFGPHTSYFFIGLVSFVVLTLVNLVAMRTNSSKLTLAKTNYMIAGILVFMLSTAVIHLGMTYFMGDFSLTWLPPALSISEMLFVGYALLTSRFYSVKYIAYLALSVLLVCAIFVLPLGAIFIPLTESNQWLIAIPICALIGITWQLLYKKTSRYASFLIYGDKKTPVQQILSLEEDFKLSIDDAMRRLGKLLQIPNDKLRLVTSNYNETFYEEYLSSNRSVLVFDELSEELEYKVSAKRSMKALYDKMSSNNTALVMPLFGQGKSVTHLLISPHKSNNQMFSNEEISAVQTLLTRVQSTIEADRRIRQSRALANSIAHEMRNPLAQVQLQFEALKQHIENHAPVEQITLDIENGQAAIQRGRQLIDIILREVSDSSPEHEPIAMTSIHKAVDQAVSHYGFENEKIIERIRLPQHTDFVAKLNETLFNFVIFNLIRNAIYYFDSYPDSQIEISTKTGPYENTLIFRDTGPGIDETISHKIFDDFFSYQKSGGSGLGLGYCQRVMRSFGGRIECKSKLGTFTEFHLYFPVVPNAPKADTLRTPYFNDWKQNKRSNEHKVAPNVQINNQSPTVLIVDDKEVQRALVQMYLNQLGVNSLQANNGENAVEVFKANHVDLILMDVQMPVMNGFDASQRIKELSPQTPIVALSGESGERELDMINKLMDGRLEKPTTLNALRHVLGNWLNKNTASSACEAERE

C[C@@H](O)CC(=O)N[C@H]1CCOC1=O [HAI-1, N-(3-hydroxybutyryl)-homoserine lactone]
inhibition at 10 µM (LuxN): 57%

C[C@]12OC[C@H](O)[C@@]1(O)O[B-](O)(O)O2 [AI-2]
IC50 [1]: 5 µM
